According to patent US9314464B2, “Compounds and compositions as protein kinase inhibitors” (Novartis AG, priority 2009, dated 2016):
Blank lines part the entries; values can stand above or below the compound they belong to.

Tests used:
[1] = Liver Microsomal Clearance Assay, mouse; type: in vitro ADME; conditions: extraction ratio, mouse liver microsomes
Description: (§1) Liver Microsomal Clearance Assay
(§2) The in vitro microsomal clearance assay is designed to assess potential risks associated with hepatic metabolic stability of compounds. The test compound (1 μM) was incubated with liver microsomes (0.5 mg/mL) from different species (mouse, rat, monkey, dog and human) and NADPH (1 mM) in 100 mM potassium phosphate buffer at 37° C. At specific reaction time points (0, 5, 10 and 30 minutes), reaction aliquots were removed and reactions were terminated by addition of ice cold acetonitrile containing mass spectrometry internal standard. The samples were centrifuged and the supernatants were analyzed by LC-MS/MS. In vitro metabolic half-life (t1/2, min) and intrinsic clearance (CLint, μL/min/mg) are based on the rate and extent of metabolism of the test compound as determined by the disappearance of the parent compound from the reaction mixture. These values may be scaled to predict hepatic metabolic clearance rate (CLh, mL/min/kg) and extraction ratio (ER, expressed as a ratio of the predicted hepatic metabolic clearance to hepatic blood flow in that species). In general, compounds with high predicted CLint or ER in vitro are considered to be at high risk for exposure-limiting metabolism in vivo.

[2] = Liver Microsomal Clearance Assay, human; type: in vitro ADME; conditions: extraction ratio, human liver microsomes
Description: as §1, §2

[3] = In Vivo Pharmacokinetics Assay in mouse; conditions: male, Balb/c, plasma; for clearance at 24 h: IV 2 mg/kg
Description: (§3) Full pharmacokinetics study: Male Balb/c mice (n=3, body weights 22-25 g) or male Wistar rats (n=3, body weights 250-300 g) were administered the test compound intravenously via the lateral tail vein or orally via gavage. The formulation was typically a 2.5 mg/mL solution of the compound in 75% PEG300 and 25% D5W. Six blood samples of 50 μL each were collected serially for 24 h after dosing. The blood samples were centrifuged to separate the plasma. Plasma samples were analyzed and quantified by LC-MS/MS.
as §3, with “Rapid” for “Full”, “intravenously (IV)” for “intravenously”, “orally (PO)” for “orally”, “Blood” for “The blood”, “and plasma separated and pooled across” for “to separate”, “three animals at each time point per dose route.” for “plasma.”
For both full and rapid pharmacokinetics studies, the following parameters were calculated by non-compartmental regression analysis using Winnonlin 5.0 software (Pharsight, Mountain View, Calif., USA): plasma clearance (Cl), plasma maximum concentration (Cmax), plasma area-under-the-concentration-time-curve (AUC0-inf), and percent oral bioavailability (F %).

B-Raf V600E = B-Raf V600E (Homo sapiens (Human), UniProt P15056, V600E); test: B-Raf V600E/Mek Amplified Luminescence Proximity Homogeneous Assay (B-Raf V600E biochemical); conditions: read-out: BRAF V600E biochemical IC50
B-Raf V600E, sequence (P15056 whole entry V600E): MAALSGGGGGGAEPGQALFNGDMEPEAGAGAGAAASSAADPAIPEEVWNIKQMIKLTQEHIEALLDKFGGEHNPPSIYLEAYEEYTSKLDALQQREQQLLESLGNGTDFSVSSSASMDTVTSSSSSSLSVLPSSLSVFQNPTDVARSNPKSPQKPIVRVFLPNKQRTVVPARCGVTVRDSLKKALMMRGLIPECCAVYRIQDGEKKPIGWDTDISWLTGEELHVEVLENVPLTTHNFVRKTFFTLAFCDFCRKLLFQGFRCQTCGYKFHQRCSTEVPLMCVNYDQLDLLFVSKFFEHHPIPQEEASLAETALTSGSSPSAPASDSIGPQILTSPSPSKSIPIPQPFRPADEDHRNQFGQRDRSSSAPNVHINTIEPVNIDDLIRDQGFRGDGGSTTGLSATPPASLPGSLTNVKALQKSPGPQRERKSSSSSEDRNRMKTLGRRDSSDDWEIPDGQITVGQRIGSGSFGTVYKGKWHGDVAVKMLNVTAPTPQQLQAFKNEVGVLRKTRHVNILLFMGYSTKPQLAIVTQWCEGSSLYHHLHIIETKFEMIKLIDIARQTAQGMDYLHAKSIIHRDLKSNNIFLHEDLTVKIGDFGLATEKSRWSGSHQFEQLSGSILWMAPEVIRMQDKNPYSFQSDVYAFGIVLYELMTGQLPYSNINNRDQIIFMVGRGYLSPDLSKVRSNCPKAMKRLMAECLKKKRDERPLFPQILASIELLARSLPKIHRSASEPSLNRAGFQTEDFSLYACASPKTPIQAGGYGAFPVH
Description: The plate was incubated for 60 minutes at room temperature.
The B-Raf kinase activity reaction was started by the addition of 10 μl per well of 2×ATP (10 μM) diluted in assay buffer. After 3 hours, the reactions were stopped with the addition of 10 μl of stop reagent (60 mM EDTA, 0.01% Tween20). Phosphorylated product was measured using a rabbit anti-p-MEK (Cell Signaling, #9121) antibody and the Alpha Screen IgG (ProteinA) detection Kit (PerkinElmer #6760617R), by the addition of 30 μl to the well of a mixture of the antibody (1:2000 dilution) and detection beads (1:1000 dilution of both beads) in bead buffer (50 mM Tris, pH 7.5, 0.01% Tween20). The additions were carried out under dark conditions to protect the detection beads from light. A lid was placed on top of the plate and the plate was incubated for 1 hour at room temperature. The luminescence was read on a PerkinElmer Envision instrument. The concentration of each compound for 50% inhibition (IC50) was calculated by non-linear regression using XL Fit data analysis software.

[4] = 5 mg/kg, PO/IV 5/2 mg/kg, n = 1

ER Mouse [1]: 0.79 | ER Human [2]: 0.66 | bioavailability at 24 h [3, 4]: 46% | clearance at 24 h [3]: 7 mL/min/kg | AUC at 24 h ([3]; PO 5 mg/kg, n = 1): 9.7 µM·h | Cmax at 24 h ([3]; PO 5 mg/kg, n = 1): 7400 nM
Structure (SMILES): CCCS(=O)(=O)Nc1cc(Cl)cc(-c2nn(C(C)C)cc2-c2ccnc(NC[C@H](C)NC(=O)OC)n2)c1F [Compound 1, Methyl N-[(2S)-1-[(4-{3-[5-chloro-2-fluoro-3-(propane-1-sulfonamido)phenyl]-1-(propan-2-yl)-1H-pyrazol-4-yl}pyrimidin-2-yl)amino]propan-2-yl]carbamate]

IC50 (B-Raf V600E): 0.8 nM
Structure (SMILES): COC(=O)N[C@@H](C)CNc1nccc(-c2cn(C(C)C)nc2-c2cc(Cl)cc(NS(C)(=O)=O)c2)n1 [Compound 2, methyl N-[(2S)-1-({4-[3-(3-chloro-5-methanesulfonamidophenyl)-1-(propan-2-yl)-1H-pyrazol-4-yl]pyrimidin-2-yl}amino)propan-2-yl]carbamate]

ER Mouse [1]: 0.85 | ER Human [2]: 0.69 | bioavailability at 24 h [3, 4]: 6% | clearance at 24 h [3]: 51 mL/min/kg | AUC at 24 h ([3]; PO 5 mg/kg, n = 1): 0.2 µM·h | Cmax at 24 h ([3]; PO 5 mg/kg, n = 1): 70 nM
Structure (SMILES): CCCS(=O)(=O)Nc1cccc(-c2nn(C(C)C)cc2-c2ccnc(NC[C@H](C)NC(=O)OC)n2)c1F [Compound 3, methyl N-[(2S)-1-[(4-{3-[2-fluoro-3-(propane-1-sulfonamido)phenyl]-1-(propan-2-yl)-1H-pyrazol-4-yl}pyrimidin-2-yl)amino]propan-2-yl]carbamate]

ER Mouse [1]: 0.40 | ER Human [2]: <0.31 | bioavailability at 24 h ([3]; 10 mg/kg, PO/IV 10/2 mg/kg): 36 ± 6% | clearance at 24 h [3]: 41 ± 9 mL/min/kg | AUC at 24 h ([3]; PO 10 mg/kg): 3 ± 0.5 µM·h | Cmax at 24 h ([3]; PO 10 mg/kg): 2000 ± 500 nM | IC50 (B-Raf V600E): 2.3 nM
Structure (SMILES): COC(=O)N[C@@H](C)CNc1nccc(-c2cn(C(C)C)nc2-c2cccc(NS(C)(=O)=O)c2F)n1 [Compound 4, methyl N-[(2S)-1-({4-[3-(2-fluoro-3-methanesulfonamidophenyl)-1-(propan-2-yl)-1H-pyrazol-4-yl]pyrimidin-2-yl}amino)propan-2-yl]carbamate]

IC50 (B-Raf V600E): 0.2 nM
Structure (SMILES): CCCS(=O)(=O)Nc1cc(Cl)cc(-c2nn(C(C)C)cc2-c2ccnc(NC[C@H](C)NC(=O)OC)n2)c1 [Compound 5, methyl N-[(2S)-1-[(4-{3-[3-chloro-5-(propane-1-sulfonamido)phenyl]-1-(propan-2-yl)-1H-pyrazol-4-yl}pyrimidin-2-yl)amino]propan-2-yl]carbamate]

ER Human [2]: 0.69 | bioavailability at 24 h ([3]; 10 mg/kg, PO/IV 10/2 mg/kg): 15 ± 3% | clearance at 24 h [3]: 61 ± 6 mL/min/kg | AUC at 24 h ([3]; PO 10 mg/kg): 1.1 ± 0.2 µM·h | Cmax at 24 h ([3]; PO 10 mg/kg): 600 ± 20 nM | IC50 (B-Raf V600E): 3.9 nM
Structure (SMILES): COC(=O)N[C@@H](C)CNc1nccc(-c2cn(C(C)C)nc2-c2c(F)ccc(NS(C)(=O)=O)c2F)n1 [Compound 6, methyl N-[(2S)-1-({4-[3-(2,6-difluoro-3-methanesulfonamidophenyl)-1-(propan-2-yl)-1H-pyrazol-4-yl]pyrimidin-2-yl}amino)propan-2-yl]carbamate]

IC50 (B-Raf V600E): 0.6 nM
Structure (SMILES): COC(=O)N[C@@H](C)CNc1nccc(-c2cn(C(C)C)nc2-c2cc(F)cc(NS(C)(=O)=O)c2F)n1 [Compound 10, methyl N-[(2S)-1-({4-[3-(2,5-difluoro-3-methanesulfonamidophenyl)-1-(propan-2-yl)-1H-pyrazol-4-yl]pyrimidin-2-yl}amino)propan-2-yl]carbamate]

IC50 (B-Raf V600E): 0.5 nM
Structure (SMILES): CCn1cc(-c2ccnc(NC[C@H](C)NC(=O)OC)n2)c(-c2cc(Cl)cc(NS(C)(=O)=O)c2F)n1 [Compound 11, methyl N-[(2S)-1-({4-[3-(5-chloro-2-fluoro-3-methanesulfonamidophenyl)-1-ethyl-1H-pyrazol-4-yl]pyrimidin-2-yl}amino)propan-2-yl]carbamate]

IC50 (B-Raf V600E): 1.1 nM
Structure (SMILES): COC(=O)N[C@@H](C)CNc1nccc(-c2cn(C(C)C)nc2-c2cc(F)cc(NS(C)(=O)=O)c2Cl)n1 [Compound 15, Methyl N-[(2S)-1-({4-[3-(2-chloro-5-fluoro-3-methanesulfonamidophenyl)-1-(propan-2-yl)-1H-pyrazol-4-yl]pyrimidin-2-yl}amino)propan-2-yl]carbamate]

IC50 (B-Raf V600E): 24 nM
Structure (SMILES): COC(=O)N[C@@H](C)CNc1nccc(-c2cn(C(C)C)nc2-c2ccnc(NS(C)(=O)=O)c2F)n1 [Compound 16, methyl N-[(2S)-1-({4-[3-(3-fluoro-2-methanesulfonamidopyridin-4-yl)-1-(propan-2-yl)-1H-pyrazol-4-yl]pyrimidin-2-yl}amino)propan-2-yl]carbamate]

IC50 (B-Raf V600E): 6.1 nM
Structure (SMILES): COC(=O)N[C@@H](C)CNc1nccc(-c2cn(C(C)C)nc2-c2ccc(F)c(NS(C)(=O)=O)c2F)n1 [Compound 19, methyl N-[(2S)-1-({4-[3-(2,4-difluoro-3-methanesulfonamidophenyl)-1-(propan-2-yl)-1H-pyrazol-4-yl]pyrimidin-2-yl}amino)propan-2-yl]carbamate]

IC50 (B-Raf V600E): 1.7 nM
Structure (SMILES): CCS(=O)(=O)Nc1c(F)ccc(-c2nn(C(C)C)cc2-c2ccnc(NC[C@H](C)NC(=O)OC)n2)c1F [Compound 26, methyl N-[(2S)-1-({4-[3-(3-ethanesulfonamido-2,4-difluorophenyl)-1-(propan-2-yl)-1H-pyrazol-4-yl]pyrimidin-2-yl}amino)propan-2-yl]carbamate]

IC50 (B-Raf V600E): 390 nM
Structure (SMILES): COC(=O)N[C@@H](C)CNc1nccc(-c2cn(C(C)C)nc2-c2cc(NS(C)(=O)=O)c(C)c(OC)c2)n1 [Compound 27]

IC50 (B-Raf V600E): 90 nM
Structure (SMILES): CC(C)n1cc(-c2ccnc(NCCN(C)C)n2)c(-c2cc(Cl)cc(NS(C)(=O)=O)c2F)n1 [Compound 28, N-{5-chloro-3-[4-(2-{[2-(dimethylamino)ethyl]amino}pyrimidin-4-yl)-1-(propan-2-yl)-1H-pyrazol-3-yl]-2-fluorophenyl}methanesulfonamide]

IC50 (B-Raf V600E): 8 nM
Structure (SMILES): CNc1nccc(-c2cn(C(C)C)nc2-c2cc(Cl)cc(NS(C)(=O)=O)c2F)n1 [Compound 29, N-(5-chloro-2-fluoro-3-{4-[2-(methylamino)pyrimidin-4-yl]-1-(propan-2-yl)-1H-pyrazol-3-yl}phenyl)methanesulfonamide]

IC50 (B-Raf V600E): 4.3 nM
Structure (SMILES): CC(C)n1cc(-c2ccnc(N)n2)c(-c2cc(Cl)cc(NS(C)(=O)=O)c2F)n1 [Compound 30, N-{3-[4-(2-aminopyrimidin-4-yl)-1-(propan-2-yl)-1H-pyrazol-3-yl]-5-chloro-2-fluorophenyl}methanesulfonamide]

IC50 (B-Raf V600E): 0.8 nM
Structure (SMILES): COC(=O)N[C@@H](C)CNc1nccc(-c2c[nH]nc2-c2cc(Cl)cc(NS(C)(=O)=O)c2F)n1 [Compound 31, Methyl N-[(2S)-1-({4-[3-(5-chloro-2-fluoro-3-methanesulfonamidophenyl)-1H-pyrazol-4-yl]pyrimidin-2-yl}amino)propan-2-yl]carbamate]

IC50 (B-Raf V600E): 2.9 nM
Structure (SMILES): COC(=O)NC[C@H](C)Nc1nccc(-c2cn(C(C)C)nc2-c2cc(Cl)cc(NS(C)(=O)=O)c2F)n1 [Compound 32, Methyl N-[(2S)-2-({4-[3-(5-chloro-2-fluoro-3-methanesulfonamidophenyl)-1-(propan-2-yl)-1H-pyrazol-4-yl]pyrimidin-2-yl}amino)propyl]carbamate]

IC50 (B-Raf V600E): 2.7 nM
Structure (SMILES): CCCS(=O)(=O)Nc1c(F)ccc(-c2nn(C(C)C)cc2-c2ccnc(NC[C@H](C)NC(=O)OC)n2)c1F [Compound 34, methyl N-[(2S)-1-[(4-{3-[2,4-difluoro-3-(propane-1-sulfonamido)phenyl]-1-(propan-2-yl)-1H-pyrazol-4-yl}pyrimidin-2-yl)amino]propan-2-yl]carbamate]
